Patent US10300026B2, “Use of dihydroxyacetone in preparation of anti-cancer medicaments” (priority 2015, dated 2019)
Like-named read-outs stand apart in the source and are kept apart here.

Tests used:
[1] = system: HL-60; assay: CellTiter-Glo cell viability, HL-60 (human leukemic cell line); type: cell-based
Procedure: (§1) 15 g of the commercially available 1,3-dihydroxyacetone in the solid powder form was added into 100 mL of 5% glucose (infusion bottle), then filled into 100 bottles.
(§2) After digesting the cells and counting (counting suspended cells directly), the cells were diluted to 1.25×10^5 cells/ml, inoculated into a 384-well plate (5000 cells/well) with 40 μl per well, centrifuged at 1500 rpm for 1 min, placed into the incubator and incubated overnight.
(§3) The medicaments were diluted in gradient with a 5% glucose solution to 5×, respectively. Each well was dosed with 10 μl medicament, with 4 wells (n=4) for each concentration. The cell viability was measured with Luminescence Cell Viability Assay kit after incubating for 72 hours in an incubator.
(§4) CellTiter-Glo reagent was added into each well, the volume of which is the same as that of medium. It was shaked on a shaker for 5 min, centrifuged at 1500 rpm for 1 min, and incubated in the dark at room temperature for 15 min. Then the chemiluminescence was detected with BMG PHERAstar.
(§5) The cell viability was calculated by using the following formula: Cell viability (Viability %)=100%×(LUMsample to be measured−LUMblank)/(LUMsolvent control−LUMblank)
(§6) The curve of Log[concentration] versus cell viability was fitted using Prism 6 to calculate IC50 of sample for each cell line.

[2] = at pH 6.0; cited from earlier work
[3] = system: SGC7901; assay: CellTiter-Glo cell viability, SGC7901 (human gastric adenocarcinoma cell); type: cell-based
Procedure: as §1, §2, §3, §4, §5, §6

[4] = system: H460; assay: CellTiter-Glo cell viability, H460 (human large cell lung cancer cell line); type: cell-based
Procedure: as §1, §2, §3, §4, §5, §6

[5] = system: SW620; assay: CellTiter-Glo cell viability, SW620 (human colon cancer cell); type: cell-based
Procedure: as §1, §2, §3, §4, §5, §6

[6] = system: Caki-1; assay: CellTiter-Glo cell viability, Caki-1 (human renal clear cell carcinoma skin metastatic cell); type: cell-based
Procedure: as §1, §2, §3, §4, §5, §6

[7] = system: MDA-MB-231; assay: CellTiter-Glo cell viability, MDA-MB-231 (human breast cancer cell); details: 72 hours, n=4, read-out: IC50 calculated based on the concentration of dihydroxyacetone
Procedure: as §1, §2, §3, §4, §5, §6

[8] = system: C-33A; assay: CellTiter-Glo cell viability, C-33A (human cervical cancer cell); type: cell-based
Procedure: as §1, §2, §3, §4, §5, §6

[9] = system: HCCLM3; assay: CellTiter-Glo cell viability, HCCLM3 (human high metastatic hepatoma cell); type: cell-based
Procedure: as §1, §2, §3, §4, §5, §6

[10] = system: FaDu; assay: CellTiter-Glo cell viability, FaDu (human pharyngeal squamous cell); type: cell-based
Procedure: as §1, §2, §3, §4, §5, §6

[11] = system: S180; assay: CellTiter-Glo cell viability, S180 (S180 sarcoma cells); type: cell-based
Procedure: as §1, §2, §3, §4, §5, §6

[12] = system: Jurkat; assay: CellTiter-Glo cell viability, Jurkat (human T lymphoblastic leukemia cell); type: cell-based
Procedure: as §1, §2, §3, §4, §5, §6

[13] = system: HCT116; assay: CellTiter-Glo cell viability, HCT116 (human colon cancer cell); type: cell-based
Procedure: as §1, §2, §3, §4, §5, §6

[14] = system: DU145; assay: CellTiter-Glo cell viability, DU145 (human prostate cancer cell); type: cell-based
Procedure: as §1, §2, §3, §4, §5, §6

[15] = Homo sapiens, 72 h, read-out: IC50 calculated based on the concentration of dihydroxyacetone

O=C(CO)CO [Dihydroxyacetone, 1,3-dihydroxyacetone]
IC50 ([1]; Homo sapiens, HL-60, 72 h, read-out: IC50 calculated based on the concentration of dihydroxyacetone): 2780 µM
Stability [2]: stable
IC50 ([3]; Homo sapiens, SGC-7901, 72 h, read-out: IC50 calculated based on the concentration of dihydroxyacetone): 3740 µM
IC50 ([4]; Homo sapiens, NCI-H460, 72 h, read-out: IC50 calculated based on the concentration of dihydroxyacetone): 3790 µM
IC50 ([5]; Homo sapiens, SW-620, 72 h, read-out: IC50 calculated based on the concentration of dihydroxyacetone): 8540 µM
IC50 ([6]; Homo sapiens, CAKI-1, 72 h, read-out: IC50 calculated based on the concentration of dihydroxyacetone): 10000 µM
IC50 [7]: 7950 µM
IC50 ([8]; Homo sapiens, C-33-A, 72 h, read-out: IC50 calculated based on the concentration of dihydroxyacetone): 5090 µM
IC50 ([9]; Homo sapiens, HCCLM3, 72 h, read-out: IC50 calculated based on the concentration of dihydroxyacetone): 5480 µM
IC50 [10, 15]: 9420 µM
IC50 ([11]; S-180, 72 h, read-out: IC50 calculated based on the concentration of dihydroxyacetone): 950 µM
IC50 [12, 15]: 1830 µM
IC50 ([13]; Homo sapiens, HCT-116, 72 h, read-out: IC50 calculated based on the concentration of dihydroxyacetone): 6820 µM
IC50 ([14]; Homo sapiens, DU-145, 72 h, read-out: IC50 calculated based on the concentration of dihydroxyacetone): 7680 µM

N.N.[Cl][Pt][Cl] [DDP, cis-diammine platinum dichloride, reference compound]
IC50 ([1]; HL-60, 72 hours, n=4, read-out: IC50): 1.82 µM
IC50 ([3]; SGC7901, 72 hours, n=4, read-out: IC50): 24 µM
IC50 ([4]; H460, 72 hours, n=4, read-out: IC50): 1.67 µM
IC50 ([5]; SW620, 72 hours, n=4, read-out: IC50): 24.4 µM
IC50 ([6]; Caki-1, 72 hours, n=4, read-out: IC50): 13.1 µM
IC50 ([8]; C-33A, 72 hours, n=4, read-out: IC50): 2.85 µM
IC50 ([9]; HCCLM3, 72 hours, n=4, read-out: IC50): 183 µM
IC50 ([10]; 72 hours, n=4, read-out: IC50): 11.5 µM
IC50 ([11]; S180, 72 hours, n=4, read-out: IC50): 0.26 µM
IC50 ([12]; 72 hours, n=4, read-out: IC50): 0.66 µM
IC50 ([13]; HCT116, 72 hours, n=4, read-out: IC50): 22.9 µM
IC50 ([14]; DU145, 72 hours, n=4, read-out: IC50): 4.54 µM
